This note sets out measurements from paper PMC11350846, “Synthesis of Second-Generation Analogs of Temporin-SHa Peptide Having Broad-Spectrum Antibacterial and Anticancer Effects” (Antibiotics, 2024).

Usually IC50 stands for the concentration that gives 50% inhibition. A high value points to weaker potency in that assay.

The structures appear in SMILES notation. Where a SMILES comes first, the peptide text is derived from it. [ ]: non-standard residue; d: D form.

One series has as its system E. faecium (DSM 20477). The note with it: E. faecium, from MIC. How it is done:
(§1) The peptides were assessed for their antibacterial activity by determining the minimum inhibitory concentration (MIC) using the two-fold serial dilution method following the National Committee of Clinical Laboratory Standards, as previously described. Gram-negative (Acinetobacter baumannii (DSM 30007), Escherichia coli (ATCC 8739), Enterobacter cloacae (DSM 30054), Helicobacter pylori (ATCC 43504), Klebsiella pneumoniae (DSM 26371), Pseudomonas aeruginosa (ATCC 9027)) and Gram-positive bacteria (Bacillus subtilis (ATCC 6633), Enterococcus faecalis (DSM 2570), Enterococcus faecium (DSM 20477), Staphylococcus aureus (ATCC 6538)) were used for the antibacterial activity assays. In brief, 3 mL of Mueller–Hinton (MH) broth was inoculated with single clusters of the various bacterial strains and incubated overnight at 37 °C with agitation at 200 rpm. The next day, the bacterial solution was diluted with sterile MH by 1/100 and further incubated at 37 °C and 200 rpm until the bacteria reached the log phase growth (OD600nm around 0.6). The bacterial suspension was then adjusted to a density of approximately 10^5 bacteria/mL, and 100 μL was added per well of 96-well microplates (Greiner BioOne, Les Ulis, France), followed by exposure to increasing concentrations of peptides (from 0 to 100 µM, 1:2 dilution). Plates were then incubated at 37 °C for 18-24 h under either aerobic (for A. baumannii, E. cloacae, E. coli, P. aeruginosa, B. subtilis, and S. aureus) or micro-aerobic conditions generated using GasPak units (for E. faecalis, E. faecium and, H. pylori). […] The optical density (OD) at 600nm was measured using a microplate reader (Biotek, Synergy Mx, Les Ulis, France) after the final incubation. All experiments were performed in triplicate (n = 3).

A further series has as its system Breast Cancer (MCF-7). The class given is cell-based, human. To be noted: 48 h. How it is done:
(§2) The antiproliferative activity of the peptides was evaluated, as previously described using human cancer cell lines (A549 (lung), A2780 (ovary), HepG-2 (liver), MCF-7 (breast), MiaPaCa-2 (pancreas), MNT-1 (skin), and PC-3 (prostate)) and normal human lung fibroblasts (IMR-90) or epithelial cells (BEAS-2B). The cells were cultured in DMEM supplemented with 10% FBS, 1% L-glutamine, and 1% antibiotics at 37 °C in a 5% CO2 incubator. For the antiproliferative assay, cells were seeded in 96-well plates at approximately 3000 cells/well. Twenty-four hours later, cells were treated with increasing concentrations of peptides (1:2 serial dilution from 100 µM to 0 µM) for 48 h. After treatment, the number of viable cells was determined using a resazurin-based assay, and the fluorescence intensity was measured with a microplate reader (Ex 530 nm/Em 590 nm). The IC50 values of the peptides (i.e., the concentrations causing 50% inhibition of cell proliferation) were determined using GraphPad® Prism 7 software. The experiments were performed in triplicate (n = 3). The cytotoxicity of the peptides was also evaluated using confluent/no-dividing cells, as previously described. Briefly, human cells were seeded onto 96-well plates at 20,000 cells/well. When they reached 80–90% confluence (after 24–48 h), cells were treated with escalating concentrations of peptides. After 48h incubation, cell viability was measured using a resazurin assay and CC50 (i.e., the concentrations causing 50% inhibition of cell viability) and determined using GraphPad® Prism 7 software. The experiments were performed in triplicate (n = 3).

Another series has as its system Liver Cancer (HepG-2). The class given is cell-based, human. To be noted: 48 h. How it is done: as §2
The subject of the next series is Lung Cancer (A549). The series is classed as cell-based, human. The note with it: 48 h. The method, then: as §2
Series [1] concerns Normal Lung Epithelium (BEAS-2B). The series is classed as cell-based, human. The note with it: 48 h. How it is done: as §2
For series [2], the system named is Normal Lung Fibroblast (IMR-90). The class given is cell-based, human. To be noted: 48 h. The method, then: as §2
For a further series, the system named is Ovarian Cancer (A2780). The series is classed as cell-based, human. To be noted: 48 h. The method, then: as §2
Series [3] relates to Pancreatic Cancer (MiaPaCa-2). The series is classed as cell-based, human. To be noted: 48 h. How it is done:
as §2

In another series the test system is Prostate Cancer (PC-3). The series is classed as cell-based, human. The note with it: 48 h. How it is done:
as §2

The test system of the next series is Skin Cancer (MNT-1). The series is classed as cell-based, human. The note with it: 48 h. The method, then: as §2
Series [4] is described as follows: Circular dichroism, secondary structure (Bestsel). The class given is physicochemical. The note with it: CD in 20 mM SDS. How it is done: Circular dichroism of temporin SHa, [G10a]-SHa and newly synthesised second-generation analogs of [G10a]-SHa in 20 mM SDS are shown in Figure 2. In lipidic environments mimicked by SDS, peptides adopt an alpha helical structure due to their amphipathic nature. This structural feature is important for their antimicrobial activity, allowing for their insertion into bacterial membranes. The hydrophobic region of the peptide interacts with the hydrophobic portion of the lipid while the hydrophilic region remains exposed to the aqueous environment. The percentage of alpha helix, as well as the percentage of other secondary structures, was determined from CD data using Bestsel software (https://bestsel.elte.hu/index.php, (accessed on 22 June 2024)) (Table 3). Temporin-SHa (1) adopted a 49.5% α-helical structure, while its first-generation analog [G10a]-SHa (2) acquired a 82.4% alpha helical structure. The 84.6%, 88.7%, 4.7%, and 53.8% alpha helical structures were acquired for second-generation analogs 3, 4, 5, and 6, respectively.
The far-ultraviolet CD spectra were obtained using a JASCO J-810 spectropolarimeter (Jasco, Tokyo, Japan). In addition to this, the quartz cuvette of 10 mm path length was used. The temperature was maintained at 22 °C, and the output of the instrument was calibrated using D-(+)-10-camphorsulfonic acid. The peptides, which were present at a concentration of 1.0 mg/mL, were dissolved completely in 20 mM SDS at a concentration of 15 µM [21]. The instrument was set to record wavelengths ranging from 190 to 260 nm with a bandwidth of 2 nm. Ten consecutive scans (accumulations) were recorded for each spectrum at a rate of 50 nm/min, and the baseline was acquired under the same conditions.

In another series the test system is E. faecalis (DSM 2570). To be noted: E. faecalis, from MIC. How it is done:
as §1

Consider `CC[C@H](C)[C@H](NC(=O)CNC(=O)[C@H](CO)NC(=O)[C@H](CC(C)C)NC(=O)[C@@H](N)Cc1ccccc1)C(=O)N[C@H](C(=O)NCC(=O)N[C@@H](CCSC)C(=O)N[C@@H](CC(C)C)C(=O)N[C@H](Cc1ccccc1)C(=O)N[C@@H](CCCCN)C(=O)N[C@@H](CC(C)C)C(=O)N[C@@H](Cc1ccccc1)C(N)=O)C(C)C` [[G10f]-SHa (3), H-Phe^1-Leu^2-Ser^3-Gly^4-IIe^5-Val^6-Gly^7-Met^8-Leu^9-D-Phe^10-Lys^11-Leu^12-Phe^13-NH2] (H-FLSGIVGML[dF]KLF-NH2), for which, in the series with E. faecium (DSM 20477), the “fold activity compared to [G10a]-SHa (2)” value is 32. In addition, the IC50 in the series on Breast Cancer (MCF-7) was 4.4 ± 1.3 µM; in the series with Liver Cancer (HepG-2) it was 19.8 ± 1.7 µM; in the series on Lung Cancer (A549) it was 3.6 ± 0.7 µM; in series [1], 7.8 ± 0.3 µM; in [2] it was 14.2 ± 0.6 µM; with Ovarian Cancer (A2780), 6.6 ± 0.5 µM. Besides, the figures for the IC50 (in [3]; with Prostate Cancer (PC-3); in the series with Skin Cancer (MNT-1)) were 6.8 ± 0.4 µM, 4.9 ± 0.3 µM and 5.5 ± 0.4 µM, respectively. In series [4], this molecule displayed an Antiparallel of 15.40%. Besides, the results for the “Helix (alpha helical structure)” value in [4] and in [4] (listed as 3) were 84.60% and 84.6%, respectively. In addition, in [4], the Others was found to be 0.00%. In series [4], this molecule registered a Parallel of 0.00%. In [4], this molecule registered a Turn of 0.00%.
As for `CC[C@H](C)[C@H](NC(=O)CNC(=O)[C@H](CO)NC(=O)[C@H](CC(C)C)NC(=O)[C@@H](N)Cc1ccccc1)C(=O)N[C@H](C(=O)NCC(=O)N[C@@H](CCSC)C(=O)N[C@@H](CC(C)C)C(=O)N[C@H](Cc1ccc(O)cc1)C(=O)N[C@@H](CCCCN)C(=O)N[C@@H](CC(C)C)C(=O)N[C@@H](Cc1ccccc1)C(N)=O)C(C)C` [[G10y]-SHa (6), H-Phe^1-Leu^2-Ser^3-Gly^4-IIe^5-Val^6-Gly^7-Met^8-Leu^9-D-Tyr^10-Lys^11-Leu^12-Phe^13-NH2] (H-FLSGIVGML[dY]KLF-NH2), the “fold activity compared to [G10a]-SHa (2)” value in the series with E. faecalis (DSM 2570) is “twice the activity”; in the series with E. faecium (DSM 20477), “at least eight times more activity”. Also, the half-maximal inhibitory concentration (IC50) came out at 13.1 ± 3.6 µM in the series on Breast Cancer (MCF-7); 40.3 ± 7.2 µM in the series with Liver Cancer (HepG-2); 23.2 ± 3.1 µM in the series with Ovarian Cancer (A2780); 23.9 ± 3.9 µM in series [3]; 19.3 ± 1.2 µM with Prostate Cancer (PC-3); 44.1 ± 8.1 µM in the series on Skin Cancer (MNT-1). For the same molecule, the Antiparallel in [4] came out at 15.10%. The “Helix (alpha helical structure)” value in series [4] was 53.80%; in series [4] (listed as 6) it was 53.8%. This molecule came in with an Others in series [4] of 0.00%. Also, the Parallel in [4] was determined as 31.10%. Moreover, the Turn in series [4] was 0.00%.
